Results reported in patent publication US9040563B2, “Dual inhibitors of farnesyltransferase and geranylgeranyltransferase I” (H. Lee Moffitt Cancer Center and Research Institute, Inc., priority 2010, dated 2015).
pIC50: −log10 of the molar value. Where “and” joins values, the source holds several entries; their conditions need not be identical. Equal entries are not always repeated. One block for each compound: values may come before it.

What was measured:
SW1990 = assay: MTT proliferation/viability assay; format: cell-based, human
Description: (§1) To determine if FGTI-2734 is more efficacious than FT or GGT-1 inhibitors, 10 human cancer pancreatic cell lines, 2 human breast cancer cell lines, 2 human lung cancer cell lines and one human prostate cancer cell line were treated with these inhibitors and determined their effects on the proliferation of these cells by MTT assay.

MCF-7 = assay: MTT proliferation/viability assay; format: cell-based, human
Description: as §1

BxPC3 = assay: MTT proliferation/viability assay; format: cell-based, human
Description: as §1

Panc-1 = assay: MTT proliferation/viability assay; format: cell-based, human; details: Panc-1, pancreas
Description: as §1

HPNE = assay: MTT proliferation/viability assay; format: cell-based, human; details: pancreas
Description: as §1

ASPC-1 = assay: MTT proliferation/viability assay; format: cell-based, human
Description: as §1

A549 = assay: MTT proliferation/viability assay; format: cell-based, human; details: A549, lung
Description: as §1

HPNE-K-ras = assay: MTT proliferation/viability assay; format: cell-based, human; details: pancreas
Description: as §1

Capan-2 = assay: MTT proliferation/viability assay; format: cell-based, human
Description: as §1

MiaPaca = assay: MTT proliferation/viability assay; format: cell-based, human
Description: as §1

HPDE-C7 = assay: MTT proliferation/viability assay; format: cell-based, human; details: HPDE-C7, pancreas
Description: as §1

HPDE-C7-Kras = assay: MTT proliferation/viability assay; format: cell-based, human; details: pancreas
Description: as §1

[1] = tested on: Rap-1A geranylgeranylation; assay: Western blot of Rap-1A geranylgeranylation/processing (antibody to un-geranylgeranylated Rap-1A) in treated cells; format: cell-based
Description: The ability of FGTI-2734 to inhibit HDJ-2 farnesylation and Rap-1A geranylgeranylation in human cancer cells was determined next. To this end, the MiaPaca pancreatic cancer cell line and 2 breast cancer cell lines (MDA-MB-468 and MDA-MB-231) were treated with various concentration of the dual inhibitor FGTI-2734, the GGT-1 inhibitor GGTI-2418 or the FT inhibitor FTI-2153 and processed for Western blotting.
Testing has shown that the dual farnesyltransferase and geranygeranyltransferase-I inhibitors are effective on pancreatic tumors (90% of all cases), colonic tumors (30% of all cases), lung tumors (30% of all cases), and breast tumors (10% of all cases). NIH-3T3 cells that overexpress oncogenic mutant K-Ras, seen in FIG. 14, and MDA-MB-231 breast cancer cells with a naturally occurring K-Ras mutation, seen in FIG. 15, were treated with indicated concentrations of FGTI-2734, GGTI-2417 or FTI-2153. FGTI-2734 but not FTI-2153 or GGTI-2417 inhibited K-Ras prenylation. As expected, GGTI-2417 inhibited the processing of Rap1 but not HDJ-2 whereas FTI-2153 inhibited the processing of HDJ-2 but not Rap1.
Mammalian target of rapamycin (mTOR) is a serine/threonine phosphatidylinositol 3-kinase-related kinase responsible for cell growth, proliferation, cell survival, protein synthesis, and transcription. Alteration of the mTOR pathway, either through activation of oncogenes or inactivation of tumor suppressors, disrupts a signaling equilibrium and causes malignant transformation. Studies have shown that phosphorylated S6 (pS6) is related to mTOR pathway alterations, and is useful in determining PI3K-based cancer therapies (Aziz, et al. Phosphatidylinositol-3-Kinase as a Therapeutic Target in Melanoma. Clin Cancer Res. 2009, 15; 3029-3036). Two breast adenocarcinoma and a pancreatic carcinoma cell line were treated with indicated concentrations of FGTI-2734, GGTI-2417 or FTI-2153. Protein extracts were run on a Western Blot using antibody against pS6 (ser240/244) (Cell Signaling Technology, Inc., Danvers, Mass.). […]

NCI-H460 = assay: MTT proliferation/viability assay; format: cell-based; details: Homo sapiens, NCI-H460, lung
Description: as §1

DU-145 = assay: MTT proliferation/viability assay; format: cell-based, human
Description: as §1

pIC50 (SW1990; SW1990, pancreas): < 4.00
pIC50 (MCF-7; MCF-7, breast): < 4.00 and 4.30
pIC50 (BxPC3; BxPC3, pancreas): < 4.00
pIC50 (Panc-1): < 4.00
pIC50 (ASPC-1; ASPC-1, pancreas): < 4.00
pIC50 (A549): < 4.00
pIC50 (MiaPaca; pancreas): 5.92
Structure (SMILES): CSCC[C@H](NC(=O)c1ccc(CNCc2cnc[nH]2)cc1-c1ccccc1C)C(=O)O [FTI-2148]
pIC50 (HPNE): < 4.00
pIC50 (HPNE-K-ras): < 4.00
pIC50 (Capan-2; Capan-2, pancreas): < 4.00
pIC50 (HPDE-C7): < 4.00
pIC50 (HPDE-C7-Kras): < 4.00

Structure (SMILES): COC(=O)[C@H](CC(C)C)NC(=O)N1CCN(Cc2nc[nH]c2C)C(=O)[C@@H]1Cc1ccccc1 [GGTI-2417, reference compound]
inhibition of Rap1 processing ([1]; NIH-3T3 overexpressing mutant K-Ras and MDA-MB-231, FIGS. 14, 15): inhibited

pIC50 (NCI-H460): < 4.00
pIC50 (SW1990; Homo sapiens, SW1990, SW1990, pancreas): < 4.00
pIC50 (MCF-7; Homo sapiens, MCF7, MCF-7, breast): < 4.00
pIC50 (BxPC3; Homo sapiens, BXPC-3, BxPC3, pancreas): < 4.00
pIC50 (Panc-1; Homo sapiens): < 4.00
pIC50 (ASPC-1; Homo sapiens, ASPC1, ASPC-1, pancreas): < 4.00
pIC50 (A549; Homo sapiens): < 4.00
pIC50 (DU-145; DU-145, prostate): < 4.30
pIC50 (DU-145; Homo sapiens, DU-145, DU-145, prostate): < 4.00
pIC50 (MiaPaca; Homo sapiens, MIA PaCa-2, pancreas): < 4.00
Structure (SMILES): Cc1nc[nH]c1CN1CCN(C(=O)N[C@@H](CC(C)C)C(=O)O)[C@@H](Cc2ccccc2)C1=O [GGTI-2418]
inhibition of Rap-1A geranylgeranylation ([1]; MiaPaca, MDA-MB-468 and MDA-MB-231 human cancer cells, FIG. 13): inhibited selectively
pIC50 (HPNE; Homo sapiens): < 4.00
pIC50 (HPNE-K-ras; Homo sapiens): < 4.00
pIC50 (Capan-2; Homo sapiens, Capan-2, Capan-2, pancreas): < 4.00
pIC50 (HPDE-C7; Homo sapiens): < 4.00
pIC50 (HPDE-C7-Kras; Homo sapiens): < 4.00
